Experimental data from ChEMBL document CHEMBL5291721, “A preclinical secondary pharmacology resource illuminates target-adverse drug reaction associations of marketed drugs” (Nat Commun, 2023).

Columns and labels:
[1] = molecular target: 5-hydroxytryptamine receptor 2B (Homo sapiens, UniProt P41595); assay type: functional, cell-based
[2] = molecular target: T1, Prostaglandin G/H synthase 1 (Rattus norvegicus, UniProt Q63921); assay type: functional
T1 sequence (Q63921 whole entry): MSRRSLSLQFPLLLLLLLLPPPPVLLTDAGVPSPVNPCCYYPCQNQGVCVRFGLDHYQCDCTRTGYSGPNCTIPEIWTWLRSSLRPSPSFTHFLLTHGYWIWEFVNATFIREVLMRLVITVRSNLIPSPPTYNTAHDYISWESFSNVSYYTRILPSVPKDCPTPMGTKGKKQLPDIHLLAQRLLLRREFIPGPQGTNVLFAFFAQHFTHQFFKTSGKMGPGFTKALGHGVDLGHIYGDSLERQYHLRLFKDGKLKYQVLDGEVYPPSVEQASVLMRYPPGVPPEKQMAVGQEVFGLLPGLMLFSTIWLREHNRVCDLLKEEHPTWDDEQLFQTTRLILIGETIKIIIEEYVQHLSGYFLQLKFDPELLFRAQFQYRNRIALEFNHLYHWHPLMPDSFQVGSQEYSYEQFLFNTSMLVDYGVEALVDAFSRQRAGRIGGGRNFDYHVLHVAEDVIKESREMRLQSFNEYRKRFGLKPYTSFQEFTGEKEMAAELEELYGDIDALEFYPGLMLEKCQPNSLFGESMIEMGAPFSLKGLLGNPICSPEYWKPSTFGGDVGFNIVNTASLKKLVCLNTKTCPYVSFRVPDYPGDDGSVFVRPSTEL

[3] = molecular target: Adenosine receptor A2a (Homo sapiens, UniProt P29274)
[4] = molecular target: T2, Progesterone receptor (Homo sapiens, UniProt P06401); assay type: functional
T2 sequence (P06401 whole entry): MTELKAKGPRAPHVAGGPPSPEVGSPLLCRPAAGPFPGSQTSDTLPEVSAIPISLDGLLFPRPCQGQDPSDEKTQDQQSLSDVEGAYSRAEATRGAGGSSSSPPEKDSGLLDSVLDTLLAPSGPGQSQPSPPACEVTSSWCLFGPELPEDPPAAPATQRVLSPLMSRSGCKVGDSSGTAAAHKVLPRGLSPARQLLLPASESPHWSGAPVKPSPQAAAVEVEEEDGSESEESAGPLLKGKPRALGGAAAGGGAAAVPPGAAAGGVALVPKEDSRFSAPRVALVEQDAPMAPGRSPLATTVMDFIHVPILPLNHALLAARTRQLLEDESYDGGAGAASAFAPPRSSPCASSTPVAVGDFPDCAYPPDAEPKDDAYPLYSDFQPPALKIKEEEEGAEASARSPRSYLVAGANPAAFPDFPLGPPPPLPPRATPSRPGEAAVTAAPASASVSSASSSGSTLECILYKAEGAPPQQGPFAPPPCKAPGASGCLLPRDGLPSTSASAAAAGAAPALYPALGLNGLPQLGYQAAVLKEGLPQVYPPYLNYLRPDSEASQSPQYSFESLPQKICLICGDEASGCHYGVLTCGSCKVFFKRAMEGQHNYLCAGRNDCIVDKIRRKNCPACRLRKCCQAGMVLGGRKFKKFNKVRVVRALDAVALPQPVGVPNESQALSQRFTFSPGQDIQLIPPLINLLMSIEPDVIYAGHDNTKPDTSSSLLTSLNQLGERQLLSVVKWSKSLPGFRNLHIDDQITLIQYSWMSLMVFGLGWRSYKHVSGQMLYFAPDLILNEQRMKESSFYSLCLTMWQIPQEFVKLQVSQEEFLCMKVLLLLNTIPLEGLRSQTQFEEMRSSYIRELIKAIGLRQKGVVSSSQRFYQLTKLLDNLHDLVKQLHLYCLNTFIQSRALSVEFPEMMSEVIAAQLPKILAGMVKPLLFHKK

[5] = molecular target: T3, Alpha-2A adrenergic receptor (Homo sapiens, UniProt P08913); assay type: functional, cell-based
T3 sequence (P08913 whole entry): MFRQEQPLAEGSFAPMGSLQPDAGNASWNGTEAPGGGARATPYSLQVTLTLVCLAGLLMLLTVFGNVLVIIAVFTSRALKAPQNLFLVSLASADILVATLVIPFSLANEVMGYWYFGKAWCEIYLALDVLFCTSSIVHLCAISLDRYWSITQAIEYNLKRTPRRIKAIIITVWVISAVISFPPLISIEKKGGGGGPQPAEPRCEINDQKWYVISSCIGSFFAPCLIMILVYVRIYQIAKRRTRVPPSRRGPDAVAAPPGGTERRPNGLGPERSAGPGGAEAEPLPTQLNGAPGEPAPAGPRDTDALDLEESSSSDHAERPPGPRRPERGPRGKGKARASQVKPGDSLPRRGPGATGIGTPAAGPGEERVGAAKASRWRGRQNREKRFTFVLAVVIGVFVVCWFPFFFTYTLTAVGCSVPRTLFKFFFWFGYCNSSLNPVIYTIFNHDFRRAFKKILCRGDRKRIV

[6] = molecular target: T4, Type-1 angiotensin II receptor (Homo sapiens, UniProt P30556)
T4 sequence (P30556 whole entry): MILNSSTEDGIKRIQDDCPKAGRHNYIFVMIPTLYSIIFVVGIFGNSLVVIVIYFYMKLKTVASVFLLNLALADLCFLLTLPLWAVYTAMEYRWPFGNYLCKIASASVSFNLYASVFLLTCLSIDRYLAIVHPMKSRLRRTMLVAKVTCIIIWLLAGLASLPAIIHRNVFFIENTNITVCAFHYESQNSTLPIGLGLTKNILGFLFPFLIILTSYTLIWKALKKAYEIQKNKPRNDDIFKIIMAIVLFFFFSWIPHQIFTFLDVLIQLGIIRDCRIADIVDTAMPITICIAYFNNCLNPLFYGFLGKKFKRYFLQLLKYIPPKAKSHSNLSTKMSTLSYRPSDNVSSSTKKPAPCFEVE

[7] = molecular target: T5, Adenosine receptor A1 (Homo sapiens, UniProt P30542)
T5 sequence (P30542 whole entry): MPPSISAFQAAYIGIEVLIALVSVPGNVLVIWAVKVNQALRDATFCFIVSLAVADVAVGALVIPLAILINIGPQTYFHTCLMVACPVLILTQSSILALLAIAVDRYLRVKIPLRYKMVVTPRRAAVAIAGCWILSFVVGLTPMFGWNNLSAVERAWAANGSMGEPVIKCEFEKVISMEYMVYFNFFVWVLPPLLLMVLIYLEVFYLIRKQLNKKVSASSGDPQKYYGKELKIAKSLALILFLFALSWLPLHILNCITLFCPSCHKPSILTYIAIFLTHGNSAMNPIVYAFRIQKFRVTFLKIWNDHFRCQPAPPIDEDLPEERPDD

[8] = molecular target: Mu-type opioid receptor (Homo sapiens, UniProt P35372); experiment: biochemical; assay type: functional
[9] = molecular target: Vasopressin V1a receptor (Homo sapiens, UniProt P37288)
Also: assay procedure not described here.

Chain of Adenosine receptor A2a (P29274 whole entry): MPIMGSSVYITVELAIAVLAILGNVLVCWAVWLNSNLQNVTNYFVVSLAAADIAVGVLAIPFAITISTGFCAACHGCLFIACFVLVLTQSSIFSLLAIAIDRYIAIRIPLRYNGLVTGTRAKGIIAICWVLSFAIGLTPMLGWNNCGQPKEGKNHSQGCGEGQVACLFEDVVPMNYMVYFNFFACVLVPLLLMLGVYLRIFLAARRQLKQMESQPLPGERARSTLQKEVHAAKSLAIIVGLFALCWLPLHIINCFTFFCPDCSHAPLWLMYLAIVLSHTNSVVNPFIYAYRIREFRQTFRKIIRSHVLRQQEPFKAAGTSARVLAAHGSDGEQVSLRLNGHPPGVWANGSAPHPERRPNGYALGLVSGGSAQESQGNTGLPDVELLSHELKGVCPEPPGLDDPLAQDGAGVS
Chain of 5-hydroxytryptamine receptor 2B (P41595 whole entry): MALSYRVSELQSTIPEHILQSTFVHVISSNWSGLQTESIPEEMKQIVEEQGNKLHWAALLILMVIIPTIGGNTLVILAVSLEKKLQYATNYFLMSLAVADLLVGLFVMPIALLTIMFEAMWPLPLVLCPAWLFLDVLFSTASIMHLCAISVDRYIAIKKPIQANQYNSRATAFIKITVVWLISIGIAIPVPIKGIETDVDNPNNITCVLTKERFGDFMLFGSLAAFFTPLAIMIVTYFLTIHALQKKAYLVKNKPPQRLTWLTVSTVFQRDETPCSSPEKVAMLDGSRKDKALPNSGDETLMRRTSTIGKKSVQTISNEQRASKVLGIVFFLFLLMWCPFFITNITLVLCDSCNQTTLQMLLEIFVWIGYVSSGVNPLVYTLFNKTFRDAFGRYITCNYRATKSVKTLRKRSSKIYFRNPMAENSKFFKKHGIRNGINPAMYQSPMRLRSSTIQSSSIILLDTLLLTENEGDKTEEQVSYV
Chain of Mu-type opioid receptor (P35372 whole entry): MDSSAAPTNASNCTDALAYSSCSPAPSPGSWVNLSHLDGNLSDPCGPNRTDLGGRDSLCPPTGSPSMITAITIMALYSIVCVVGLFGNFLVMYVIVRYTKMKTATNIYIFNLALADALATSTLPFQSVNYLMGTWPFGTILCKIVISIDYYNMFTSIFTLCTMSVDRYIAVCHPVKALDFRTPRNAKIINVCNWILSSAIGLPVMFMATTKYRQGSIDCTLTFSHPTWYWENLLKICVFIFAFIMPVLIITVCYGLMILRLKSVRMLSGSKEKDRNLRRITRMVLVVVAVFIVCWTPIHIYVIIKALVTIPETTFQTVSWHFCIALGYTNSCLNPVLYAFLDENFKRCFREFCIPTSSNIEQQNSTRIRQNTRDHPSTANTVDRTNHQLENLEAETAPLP
Chain of Vasopressin V1a receptor (P37288 whole entry): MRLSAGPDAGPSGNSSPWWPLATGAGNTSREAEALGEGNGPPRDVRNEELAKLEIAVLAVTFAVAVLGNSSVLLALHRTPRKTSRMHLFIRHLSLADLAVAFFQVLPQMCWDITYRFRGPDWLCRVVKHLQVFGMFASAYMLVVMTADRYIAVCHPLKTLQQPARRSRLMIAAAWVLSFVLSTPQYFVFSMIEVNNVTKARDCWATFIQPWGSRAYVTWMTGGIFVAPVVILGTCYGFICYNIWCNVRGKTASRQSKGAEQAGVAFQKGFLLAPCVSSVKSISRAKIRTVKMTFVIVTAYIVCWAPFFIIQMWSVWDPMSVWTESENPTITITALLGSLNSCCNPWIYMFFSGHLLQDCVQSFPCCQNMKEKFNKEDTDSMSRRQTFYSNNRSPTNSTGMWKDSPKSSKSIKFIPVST

Row | Structure (SMILES) | AC50 [1] [µM] | AC50 [2] [µM] | AC50 [3] [µM] | AC50 [4] [µM] | AC50 [5] [µM] | AC50 [6] [µM] | AC50 [7] [µM] | AC50 [8] [µM] | AC50 [9] [µM]
1 | CCCCCN(C)CCC(O)(P(=O)(O)O)P(=O)(O)O [IBANDRONIC ACID] | > 30 | > 30 | > 30 | > 30 | > 30 | 6.2 | > 30 | 8.5 | > 30
2 | C1=Cc2cccc(OCC3CNCCO3)c2C1 (configuration not stated) [INDELOXAZINE] | > 30 | > 30 | > 30 | > 30 | > 30 | > 30 | > 30 | > 30 | > 30
3 | O=C(CCCCC(=O)Nc1c(I)cc(I)c(C(=O)O)c1I)Nc1c(I)cc(I)c(C(=O)O)c1I [IODIPAMIDE] | > 10 | > 10 | > 10 | > 10 | > 10 | > 10 | > 10 | > 30 | > 10
4 | CC(C)[N+](C)(CCC(C(N)=O)(c1ccccc1)c1ccccc1)C(C)C [ISOPROPAMIDE] | > 10 | > 10 | > 10 | > 10 | > 10 | > 10 | > 10 | > 30 | > 10
5 | COC(=O)C1=C(C)NC(C)=C(C(=O)OC(C)C)C1c1cccc2nonc12 (configuration not stated) [ISRADIPINE] | > 10 | > 30 | > 30 | > 30 | > 10 | > 10 | > 30 | > 30 | > 30
6 | COc1ccc(C(=O)NCc2ccc(OCCN(C)C)cc2)cc1OC [ITOPRIDE] | > 30 | > 10 | > 30 | > 30 | > 30 | > 30 | > 30 | > 30 | > 30
7 | O=C(O)Cc1cn(-c2ccccc2)nc1-c1ccc(Cl)cc1 [LONAZOLAC] | > 30 | 19 | > 30 | > 30 | > 30 | > 30 | > 30 | > 30 | > 30
8 | CC1=CC(=O)c2ccccc2C1=O [MENADIONE] | > 10 | > 10 | > 30 | > 30 | > 10 | > 10 | > 30 | > 30 | > 10
9 | C[C@H]1C[C@@H]2[C@H]([C@@H](O)C[C@@]3(C)[C@H]2CC[C@]3(O)C(=O)COC(=O)CCC(=O)O)[C@@]2(C)C=CC(=O)C=C12 [METHYLPREDNISOLONE HEMISUCCINATE] | > 30 | > 30 | > 30 | > 30 | > 30 | > 30 | > 30 | > 30 | > 30
10 | CCCCC(C)(O)C/C=C/[C@H]1[C@H](O)CC(=O)[C@@H]1CCCCCCC(=O)OC (some centres not stated) [MISOPROSTOL] | > 30 | > 30 | > 30 | 27 | > 30 | > 30 | > 30 | > 30 | > 30
11 | O=C(OCCN1CCOCC1)c1cccnc1Nc1cccc(C(F)(F)F)c1 [MORNIFLUMATE] | > 30 | > 30 | > 30 | > 30 | > 30 | > 30 | > 30 | > 30 | > 30
12 | CCCCCCC(C)(C)c1cc(O)c2c(c1)OC(C)(C)C1CCC(=O)CC21 (configuration not stated) [NABILONE] | > 30 | > 30 | > 30 | > 30 | > 30 | > 30 | > 30 | > 30 | > 30
13 | CCCCCCCCOc1ccccc1C(=O)Nc1ccc(C(=O)OCC[N+](C)(CC)CC)cc1 [OTILONIUM BROMIDE] | 12 | 14 | 5.3 | 7 | > 10 | 20 | > 30 | > 30 | 13
14 | CN1CCCN=C1COC(=O)C(O)(c1ccccc1)C1CCCCC1 (configuration not stated) [OXYPHENCYCLIMINE] | > 10 | > 10 | > 10 | > 10 | > 10 | > 10 | > 10 | > 30 | > 10
15 | Cc1nc2ccc(CN(C)c3ccc(C(=O)N[C@@H](CCC(=O)O)C(=O)O)s3)cc2c(=O)[nH]1 [RALTITREXED] | > 30 | > 30 | > 30 | > 30 | > 30 | > 30 | > 30 | > 30 | > 30
16 | C#CCN[C@@H]1CCc2ccccc21 [RASAGILINE] | > 30 | > 30 | > 30 | > 30 | > 30 | > 30 | > 30 | > 30 | > 30
17 | Nc1nc2ccc(OC(F)(F)F)cc2s1 [RILUZOLE] | > 30 | > 30 | > 30 | > 30 | > 30 | > 30 | > 30 | > 30 | > 30
18 | Cc1c(Cl)cccc1Nc1ccccc1C(=O)O [TOLFENAMIC ACID] | > 30 | 0.6 | > 30 | 26 | > 30 | > 30 | > 30 | > 30 | > 30
